Measurements published in the NIST ThermoML archive (doi:10.1021/acs.jced.5b00770).
Numbers after ± are expanded uncertainties.

Details: Crystal; visual observation

With `[Cl-].c1ccc([P+](c2ccccc2)(c2ccccc2)c2ccccc2)cc1` [tetraphenylphosphonium chloride] the Normal melting temperature was 276.50 ± 0.9 °C.
